Measured values from article PMC10175095 (Therapeutic drug monitoring, 2023).

Experiments:
[1] = Long-term stability of unprocessed plasma samples at −80°C; type: in vitro ADME; details: human plasma
[2] = Pre-processed stability in human plasma; type: in vitro ADME; details: 2.5 h
[3] = Reinjection stability in final extract; type: physicochemical; details: reinjected, 4°C, autosampler, 25.95 h
[4] = requires confirmation in prospective studies; cited from earlier work
[5] = Freeze-thaw stability of unprocessed plasma samples; type: in vitro ADME; details: human plasma, 3 freeze (-80°C)-thaw cycles
[6] = Processed sample stability in final extract; type: physicochemical; details: 4°C, autosampler, 25.1 h
[7] = RT (20–25°C), yellow light, nominal 15 ng/mL
[8] = RT (20–25°C), yellow light, nominal 1500 ng/mL

CCN1CCN(Cc2ccc(Nc3ncc(F)c(-c4cc(F)c5nc(C)n(C(C)C)c5c4)n3)nc2)CC1 [Abemaciclib, abemaciclib]
Accuracy vs fresh QCs ([1]; 3 months, nominal 15 ng/mL): 98.6%
Mean measured concentration ([1]; 3 months, nominal 15 ng/mL): 14.7 ng/mL
Accuracy vs fresh QCs ([1]; 3 months, nominal 150 ng/mL): 95.5%
Mean measured concentration ([1]; 3 months, nominal 150 ng/mL): 149 ng/mL
Accuracy vs fresh QCs ([1]; 3 months, nominal 1500 ng/mL): 95.6%
Mean measured concentration ([1]; 3 months, nominal 1500 ng/mL): 1437 ng/mL
Mean measured concentration ([1]; 7 months, nominal 15 ng/mL): 14.1 ng/mL
Accuracy vs fresh QCs ([1]; 7 months, nominal 150 ng/mL): 98.9%
Mean measured concentration ([1]; 7 months, nominal 150 ng/mL): 156 ng/mL
Accuracy vs fresh QCs ([1]; 7 months, nominal 1500 ng/mL): 97.5%
Mean measured concentration ([1]; 7 months, nominal 1500 ng/mL): 1443 ng/mL
Mean measured concentration ([1]; 12 months, nominal 15 ng/mL): 15.2 ng/mL
Accuracy vs fresh QCs ([1]; 12 months, nominal 150 ng/mL): 99.0%
Mean measured concentration ([1]; 12 months, nominal 150 ng/mL): 164 ng/mL
Accuracy vs fresh QCs ([1]; 12 months, nominal 1500 ng/mL): 96.6%
Mean measured concentration ([1]; 12 months, nominal 1500 ng/mL): 1583 ng/mL
Accuracy vs fresh QCs ([2]; 37°C, dark, nominal 15 ng/mL): 97.5%
Mean measured concentration ([2]; 37°C, dark, nominal 15 ng/mL): 15.4 ng/mL
Mean measured concentration ([2]; 37°C, dark, nominal 1500 ng/mL): 1527 ng/mL
Accuracy vs fresh QCs [2, 7]: 99.4%
Mean measured concentration [2, 7]: 15.7 ng/mL
Mean measured concentration [2, 8]: 1550 ng/mL
Accuracy vs fresh QCs ([3]; nominal 15 ng/mL): 98.2%
Mean measured concentration ([3]; nominal 15 ng/mL): 16.4 ng/mL
Accuracy vs fresh QCs ([3]; nominal 150 ng/mL): 98.7%
Mean measured concentration ([3]; nominal 150 ng/mL): 155 ng/mL
Accuracy vs fresh QCs ([3]; nominal 1500 ng/mL): 103%
Mean measured concentration ([3]; nominal 1500 ng/mL): 1527 ng/mL
Proposed target Cmin for TDM [4]: 200 to 210 ng/mL
Mean measured concentration ([5]; nominal 15 ng/mL): 15.1 ng/mL
Accuracy vs fresh QCs ([5]; nominal 1500 ng/mL): 98.8%
Accuracy vs. nominal concentration ([5]; nominal 1500 ng/mL): 98.7%
Mean measured concentration ([5]; nominal 1500 ng/mL): 1480 ng/mL
Accuracy vs fresh QCs ([6]; nominal 15 ng/mL): 95.6%
Mean measured concentration ([6]; nominal 15 ng/mL): 15.9 ng/mL
Accuracy vs fresh QCs ([6]; nominal 1500 ng/mL): 102%
Mean measured concentration ([6]; nominal 1500 ng/mL): 1510 ng/mL

CC(=O)c1c(C)c2cnc(Nc3ccc(N4CCNCC4)cn3)nc2n(C2CCCC2)c1=O [Palbociclib, palbociclib]
Accuracy vs fresh QCs ([1]; 3 months, nominal 15 ng/mL): 94.0%
Accuracy vs. nominal concentration ([1]; 3 months, nominal 15 ng/mL): 99.8%
Mean measured concentration ([1]; 3 months, nominal 15 ng/mL): 15.0 ng/mL
Accuracy vs fresh QCs ([1]; 3 months, nominal 150 ng/mL): 92.8%
Accuracy vs. nominal concentration ([1]; 3 months, nominal 150 ng/mL): 102%
Mean measured concentration ([1]; 3 months, nominal 150 ng/mL): 153 ng/mL
Accuracy vs fresh QCs ([1]; 3 months, nominal 1500 ng/mL): 92.8%
Accuracy vs. nominal concentration ([1]; 3 months, nominal 1500 ng/mL): 96.0%
Mean measured concentration ([1]; 3 months, nominal 1500 ng/mL): 1440 ng/mL
Accuracy vs fresh QCs ([1]; 7 months, nominal 15 ng/mL): 92.1%
Accuracy vs. nominal concentration ([1]; 7 months, nominal 15 ng/mL): 101.3%
Mean measured concentration ([1]; 7 months, nominal 15 ng/mL): 15.2 ng/mL
Accuracy vs fresh QCs ([1]; 7 months, nominal 150 ng/mL): 85.7%
Accuracy vs. nominal concentration ([1]; 7 months, nominal 150 ng/mL): 109%
Mean measured concentration ([1]; 7 months, nominal 150 ng/mL): 163 ng/mL
Accuracy vs fresh QCs ([1]; 7 months, nominal 1500 ng/mL): 91.6%
Accuracy vs. nominal concentration ([1]; 7 months, nominal 1500 ng/mL): 92.2%
Mean measured concentration ([1]; 7 months, nominal 1500 ng/mL): 1383 ng/mL
Accuracy vs fresh QCs ([1]; 12 months, nominal 15 ng/mL): 96.4%
Accuracy vs. nominal concentration ([1]; 12 months, nominal 15 ng/mL): 104%
Mean measured concentration ([1]; 12 months, nominal 15 ng/mL): 15.6 ng/mL
Accuracy vs fresh QCs ([1]; 12 months, nominal 150 ng/mL): 95.3%
Accuracy vs. nominal concentration ([1]; 12 months, nominal 150 ng/mL): 105%
Mean measured concentration ([1]; 12 months, nominal 150 ng/mL): 157 ng/mL
Accuracy vs fresh QCs ([1]; 12 months, nominal 1500 ng/mL): 87.0%
Accuracy vs. nominal concentration ([1]; 12 months, nominal 1500 ng/mL): 108%
Mean measured concentration ([1]; 12 months, nominal 1500 ng/mL): 1613 ng/mL
Accuracy vs fresh QCs ([2]; 37°C, dark, nominal 15 ng/mL): 94.8%
Accuracy vs. nominal concentration ([2]; 37°C, dark, nominal 15 ng/mL): 103%
Mean measured concentration ([2]; 37°C, dark, nominal 15 ng/mL): 15.4 ng/mL
Accuracy vs fresh QCs ([2]; 37°C, dark, nominal 1500 ng/mL): 102%
Accuracy vs. nominal concentration ([2]; 37°C, dark, nominal 1500 ng/mL): 99.3%
Mean measured concentration ([2]; 37°C, dark, nominal 1500 ng/mL): 1490 ng/mL
Accuracy vs fresh QCs [2, 7]: 95.6%
Accuracy vs. nominal concentration [2, 7]: 104%
Mean measured concentration [2, 7]: 15.5 ng/mL
Accuracy vs fresh QCs [2, 8]: 102%
Accuracy vs. nominal concentration [2, 8]: 99.6%
Mean measured concentration [2, 8]: 1493 ng/mL
Accuracy vs fresh QCs ([3]; nominal 15 ng/mL): 100%
Accuracy vs. nominal concentration ([3]; nominal 15 ng/mL): 112%
Mean measured concentration ([3]; nominal 15 ng/mL): 16.7 ng/mL
Accuracy vs fresh QCs ([3]; nominal 150 ng/mL): 99.0%
Accuracy vs. nominal concentration ([3]; nominal 150 ng/mL): 106%
Mean measured concentration ([3]; nominal 150 ng/mL): 160 ng/mL
Accuracy vs fresh QCs ([3]; nominal 1500 ng/mL): 100%
Mean measured concentration ([3]; nominal 1500 ng/mL): 1473 ng/mL
Accuracy vs fresh QCs ([5]; nominal 15 ng/mL): 98.1%
Accuracy vs. nominal concentration ([5]; nominal 15 ng/mL): 99.8%
Mean measured concentration ([5]; nominal 15 ng/mL): 15.0 ng/mL
Accuracy vs fresh QCs ([5]; nominal 1500 ng/mL): 98.7%
Accuracy vs. nominal concentration ([5]; nominal 1500 ng/mL): 96.9%
Mean measured concentration ([5]; nominal 1500 ng/mL): 1453 ng/mL
Accuracy vs fresh QCs ([6]; nominal 15 ng/mL): 99.0%
Accuracy vs. nominal concentration ([6]; nominal 15 ng/mL): 110%
Mean measured concentration ([6]; nominal 15 ng/mL): 16.5 ng/mL
Accuracy vs fresh QCs ([6]; nominal 1500 ng/mL): 100%
Accuracy vs. nominal concentration ([6]; nominal 1500 ng/mL): 98.7%
Mean measured concentration ([6]; nominal 1500 ng/mL): 1480 ng/mL

CN(C)C(=O)c1cc2cnc(Nc3ccc(N4CCNCC4)cn3)nc2n1C1CCCC1 [Ribociclib, ribociclib]
Accuracy vs fresh QCs ([1]; 3 months, nominal 15 ng/mL): 106%
Accuracy vs. nominal concentration ([1]; 3 months, nominal 15 ng/mL): 102%
Mean measured concentration ([1]; 3 months, nominal 15 ng/mL): 15.3 ng/mL
Accuracy vs fresh QCs ([1]; 3 months, nominal 150 ng/mL): 105%
Accuracy vs. nominal concentration ([1]; 3 months, nominal 150 ng/mL): 98.7%
Mean measured concentration ([1]; 3 months, nominal 150 ng/mL): 148 ng/mL
Accuracy vs fresh QCs ([1]; 3 months, nominal 1500 ng/mL): 104%
Accuracy vs. nominal concentration ([1]; 3 months, nominal 1500 ng/mL): 94.2%
Mean measured concentration ([1]; 3 months, nominal 1500 ng/mL): 1413 ng/mL
Accuracy vs fresh QCs ([1]; 7 months, nominal 15 ng/mL): 90.3%
Accuracy vs. nominal concentration ([1]; 7 months, nominal 15 ng/mL): 98.4%
Mean measured concentration ([1]; 7 months, nominal 15 ng/mL): 14.8 ng/mL
Accuracy vs fresh QCs ([1]; 7 months, nominal 150 ng/mL): 86.0%
Accuracy vs. nominal concentration ([1]; 7 months, nominal 150 ng/mL): 106%
Mean measured concentration ([1]; 7 months, nominal 150 ng/mL): 160 ng/mL
Accuracy vs fresh QCs ([1]; 7 months, nominal 1500 ng/mL): 88.8%
Accuracy vs. nominal concentration ([1]; 7 months, nominal 1500 ng/mL): 93.6%
Mean measured concentration ([1]; 7 months, nominal 1500 ng/mL): 1403 ng/mL
Accuracy vs fresh QCs ([1]; 12 months, nominal 15 ng/mL): 107%
Accuracy vs. nominal concentration ([1]; 12 months, nominal 15 ng/mL): 105%
Mean measured concentration ([1]; 12 months, nominal 15 ng/mL): 15.7 ng/mL
Accuracy vs fresh QCs ([1]; 12 months, nominal 150 ng/mL): 105%
Accuracy vs. nominal concentration ([1]; 12 months, nominal 150 ng/mL): 108%
Mean measured concentration ([1]; 12 months, nominal 150 ng/mL): 161 ng/mL
Accuracy vs fresh QCs ([1]; 12 months, nominal 1500 ng/mL): 101%
Accuracy vs. nominal concentration ([1]; 12 months, nominal 1500 ng/mL): 108%
Mean measured concentration ([1]; 12 months, nominal 1500 ng/mL): 1613 ng/mL
Accuracy vs fresh QCs ([2]; 37°C, dark, nominal 15 ng/mL): 97.8%
Accuracy vs. nominal concentration ([2]; 37°C, dark, nominal 15 ng/mL): 106%
Mean measured concentration ([2]; 37°C, dark, nominal 15 ng/mL): 15.9 ng/mL
Accuracy vs fresh QCs ([2]; 37°C, dark, nominal 1500 ng/mL): 102%
Accuracy vs. nominal concentration ([2]; 37°C, dark, nominal 1500 ng/mL): 100%
Mean measured concentration ([2]; 37°C, dark, nominal 1500 ng/mL): 1500 ng/mL
Accuracy vs fresh QCs [2, 7]: 98.0%
Accuracy vs. nominal concentration [2, 7]: 106%
Mean measured concentration [2, 7]: 15.9 ng/mL
Accuracy vs fresh QCs [2, 8]: 102%
Accuracy vs. nominal concentration [2, 8]: 100%
Mean measured concentration [2, 8]: 1503 ng/mL
Accuracy vs fresh QCs ([3]; nominal 15 ng/mL): 97.8%
Accuracy vs. nominal concentration ([3]; nominal 15 ng/mL): 110%
Mean measured concentration ([3]; nominal 15 ng/mL): 16.5 ng/mL
Accuracy vs fresh QCs ([3]; nominal 150 ng/mL): 101%
Accuracy vs. nominal concentration ([3]; nominal 150 ng/mL): 107%
Mean measured concentration ([3]; nominal 150 ng/mL): 161 ng/mL
Accuracy vs fresh QCs ([3]; nominal 1500 ng/mL): 101%
Accuracy vs. nominal concentration ([3]; nominal 1500 ng/mL): 100%
Mean measured concentration ([3]; nominal 1500 ng/mL): 1503 ng/mL
Proposed target Cmin for TDM [4]: 711 ng/mL
Accuracy vs fresh QCs ([5]; nominal 15 ng/mL): 98.3%
Accuracy vs. nominal concentration ([5]; nominal 15 ng/mL): 100%
Mean measured concentration ([5]; nominal 15 ng/mL): 15.0 ng/mL
Accuracy vs fresh QCs ([5]; nominal 1500 ng/mL): 97.1%
Accuracy vs. nominal concentration ([5]; nominal 1500 ng/mL): 97.1%
Mean measured concentration ([5]; nominal 1500 ng/mL): 1457 ng/mL
Accuracy vs fresh QCs ([6]; nominal 15 ng/mL): 99.2%
Accuracy vs. nominal concentration ([6]; nominal 15 ng/mL): 112%
Mean measured concentration ([6]; nominal 15 ng/mL): 16.7 ng/mL
Accuracy vs fresh QCs ([6]; nominal 1500 ng/mL): 99.8%
Accuracy vs. nominal concentration ([6]; nominal 1500 ng/mL): 98.7%
Mean measured concentration ([6]; nominal 1500 ng/mL): 1480 ng/mL
